Data: a melting point compilation (Tetko et al.; mined from patent text by program, amines drawn as free bases though some values may be those of a salt)

| SMILES | melting point [°C] |
| --- | --- |
| CCOC(=O)COc1ccc2c(C)c(CCN(CC)CC)c(=O)oc2c1Br | 150 to 151 |
| CC(=O)CC[C@H](NC(=O)OCc1ccccc1)C(N)=O | 142 to 144 |
| COc1ccc(C(C#Cc2ccccc2)Cc2nnc(C)o2)cc1OC1CCCC1 (racemic) | 105 to 106 |
| COc1ccc(C(=O)O)c2c1oc1ccc(Cl)cc12 | 264 to 276 |
| CC1=C(C(=O)Nc2cc(Cl)ccc2Cl)SC2=NCCN21 | 217 to 219 |
| CCN(CC)c1ccc2c(c1)OC(=O)N(c1ccccc1)C2(c1ccc(N(C)C)cc1)c1ccc(N(C)C)cc1 | 206 to 207 |
| COc1ccc(NC(=O)c2ccc(OC)c(C34CC5CC(CC(C5)C3)C4)c2)c(N)c1 | 211 to 213 |
| CCCCc1ccc(NCC)c(C(=O)C(=O)OC(=O)C(=O)c2cc(CCCC)ccc2NCC)c1 | 130 to 132 |
| CCOC(=O)c1c(Nc2cc(F)ccc2[N+](=O)[O-])sc2ccccc12 | 137 to 140 |
| NS(=O)(=O)c1cc2c(c(Cl)c1Cl)OC(CCl)C2 (stereo unspecified) | 195 to 196 |
| N#Cc1ccc(OCCCCCCOc2ccc(-c3cc4ccc(C#N)cc4o3)cc2)cc1 | 159 to 160 |
| CC(C)C(C)(C#N)N1C(=O)c2cc3ccccc3nc2C1=O (stereo unspecified) | 195 to 196 |
| CCN1NC=C2C1=NC=CC2(ON=C(C)C)C(O)c1ccccn1 (stereo unspecified) | 131 to 133 |
| COc1ccc(-c2c[nH]c3cc(OC)c(OC)cc3c2=O)cc1 | 310 to 311 |
| CCCCn1c(=O)n(CCC)c(=O)c2c(NC(C)=O)n[nH]c21 | 156 to 158 |
| Cc1nc(N2CCN(CC3CC3)C2=O)sc1C(=O)NCc1ccc(F)cc1 | 146 to 147 |
| CCCCCCCCC(O)CNCCNCC(O)CCCCCCCC (stereo unspecified) | 140 to 146 |
| CC1CCN(C2(c3ccc(C#CC(=O)Nc4ccc(-c5ccc(Cl)cc5)cc4)cc3)CC2)CC1 | 128 to 129 |
| O=[N+]([O-])c1nccn1CCI | 79 to 82 |
| NS(=O)(=O)NC(=O)CCCCC1CCSS1 (stereo unspecified) | 141 to 142 |
| Cc1cc(C)c(P(C(C)(C)C)C(C)(C)C)c(C)c1 | 36 to 37 |
| O=C(O)c1cc2cc(Cl)ccc2nc1N[C@@H](Cc1ccc(O)cc1)C(=O)O | 176 to 188 |
| COc1cc(C(=O)NC=NC(=O)ON(c2ccc(C)c(NC(=O)c3ccc(C=Cc4ccccc4)cc3)c2)C(C)(C)C)cc(OC)c1OC | 166 |
| CC1(C)CC2(CC(C)(C)N1c1nc(N(CCO)CCO)nc(N3CCOCC3)n1)OCCO2 | 135 to 140 |
| COc1ccc(Oc2nccc(-c3c(-c4ccc(F)cc4)ncn3C3CCNCC3)n2)cc1 | 190 to 191 |
| O=C(CCc1ccccc1C(=O)O)Nc1cccc(/C=C/c2nc(C3CCC3)cs2)c1 | 238 to 239 |

| SMILES | melting point [°C] |
| --- | --- |
| Cc1cc(C)c(S(=O)(=O)OS(=O)(=O)c2c(C)cc(C)cc2C)c(C)c1 | 194 to 198 |
| CSC(SC)=C(C#N)C(=O)N(C)C | 45 to 46 |
| NC(=S)c1c(Cl)cncc1Cl | 186 to 187 |
| Nc1nc(N)c(-c2ccc(Cl)cc2Cl)c(C(=O)O)n1 | 221 |
| O=C1NC(=O)c2c1c(-c1ccc(CO)cc1)cc1[nH]c3ccc(O)cc3c21 | 266 to 271 |
| CC(=O)O[C@@H](C)C(=O)Nc1c(C(=O)c2ccccc2)[nH]c2cc(Cl)ccc12 | 80 to 85 |
| c1ccc2c(c1)c1[nH]cnc1c1nnnn21 | > 300 |
| CCOC(=O)Cn1c(=O)n(Cc2ccc(Br)cc2F)c(=O)c2cc(Cl)c(Cl)cc21 | 220 to 221 |
| O=C(c1coc(-c2ccc(CCl)cc2)n1)N1CCCC1 | 126 to 128 |
| O=C1C(c2ccc(-c3ccccc3)cc2)n2cncc2CN1Cc1ccc(F)cc1 (stereo unspecified) | 189 to 190 |
| Cc1cc(C)c2[nH]c(=O)n(CCCN3CC=C(c4ccc(Cl)cc4)CC3)c(=O)c2c1 | 224 to 226 |
| C#CC1(O)CCc2c(OC)ccc(OC)c2C1 (stereo unspecified) | 103 to 105 |
| CC(=O)OCC(=O)c1ccc(-c2ccccc2)cc1 | 109 to 110 |
| COc1cc2c(cc1OC)CN(CC(O)CN1CCC(c3noc4cc(F)ccc34)CC1)CC2 (stereo unspecified) | 153 to 154 |
| CC(C)c1ccc(N(C)C(=O)Cn2cnc3[nH]c(=O)n(C)c(=O)c32)cc1 | 271 to 273 |
| O=C(O)c1ccccc1Sc1ccc(Cl)c(F)c1 | 231 to 232 |
| CS(=O)(=O)c1ccc(-n2cncc2-c2ccccc2F)cc1 | 188 to 189 |
| COC(=O)C1Oc2ccccc2Cc2cccc(O)c2O1 (stereo unspecified) | 163 to 165 |
| CC(N)CN(C)C(=O)c1ccccc1 (stereo unspecified) | 102 |
| CNc1c(F)cc2c(=O)c(C(=O)O)cn(-c3ccc(F)c(N)c3)c2c1Cl | 162 to 166 |
| Cn1nnc(Cc2ccc3c(c2)c(C2=CCN(CCN4CCNC4=O)CC2)cn3-c2ccc(F)cc2)n1 | 129 to 131 |
| CC1(C)CN(Cc2cc(F)ccc2F)c2cc(-c3ccc(C(=O)N4CCC[C@H]4CN4CCCC4)cc3)cnc2N1 | 74 to 77 |
| CCN(CC)c1ccc2cc(N)c(=O)oc2c1 | 85 to 87 |
| COc1ccc2c(=O)c(NC(=O)C(=O)O)coc2c1 | 236 to 238 |
| Cc1ccc(-c2ccc(C(=O)Nc3ccc4cc(CN5CCCC5)cnc4c3C)c(F)c2)cc1 | 180 to 182 |
| O=C(O)c1ccc2c(-c3ccccc3)c([N+](=O)[O-])oc2c1 | 244 to 247 |

| SMILES | melting point [°C] |
| --- | --- |
| Nc1ccc(O)c(C(=O)Nc2cccc3[nH]ccc23)c1 | > 260 |
| c1cn(Cc2ccc3c(c2)-c2[nH]nc(-c4ccsc4)c2C3)nn1 | 249 to 252 |
| CCCN(Cc1cccc(-c2noc(C)n2)c1)C(=O)Nc1ccc(-c2ccccc2S(=O)(=O)NC(C)(C)C)cc1 | 150 to 151 |
| CC(C)(C)OC(=O)NC1CCc2cc3ccccc3n2C1 (stereo unspecified) | 137 to 139 |
| CN1CCC(C2(O)c3ccccc3COc3cc(Cl)ccc32)CC1 (stereo unspecified) | 199 to 200 |
| Cc1c(SCCCSc2nc3ccccc3[nH]2)ccnc1CSc1nc2ccccc2[nH]1 | 85 to 87 |
| O=c1cnc(-c2c(F)cccc2F)n[nH]1 | 219 to 226 |
| CN1COC(CC23CCC(c4ccccc42)c2ccccc23)C1 (stereo unspecified) | 106 to 109 |
| COC(=O)c1ccc(-c2nnc(CSCCCCOc3ccccc3)o2)cc1 | 98 to 105 |
| Cc1cc(CCC(=O)c2ccc(-c3ccc(C(F)(F)F)cc3)s2)cc(C)c1OC(C)(C)C(=O)O | 157 to 158 |
| CCCc1c(OCC(O)CS(=O)(=O)c2ccc(CC(=O)O)c(Cl)c2Cl)ccc(C(C)=O)c1O (stereo unspecified) | 181 to 183 |
| CCCCCCC(C(=O)OCC)n1cnc2c([N+](=O)[O-])cccc21 (stereo unspecified) | 86 to 89 |
| COC(OC)C(C)n1nnc2ccc(OCc3ccccc3)cc21 (stereo unspecified) | 101 to 103 |
| COc1ccc(S(=O)(=O)C2(C(=O)O)CCN(Cc3ccc(-c4ccccc4)cc3)CC2)cc1 | 168 |
| Cc1ccc(C(=S)c2cc(F)cc3c2NC(=O)C3)cc1 | 168 to 174 |
| CC(C)(C)c1nc(Cl)c2ccccc2c1-c1ccccc1 | 139 to 140 |
| OCCOCC(O)c1ccc2ccccc2c1 (stereo unspecified) | 105 to 106 |
| COc1cc(COc2nn(Cc3ccc(Oc4ccccc4)cc3)cc2C(=O)O)ccc1OCc1nc(-c2ccco2)oc1C | 153 to 154 |
| Cc1cc(Cl)ccc1-c1cccc2c1OC(CN)CN2C (stereo unspecified) | 109 to 112 |
| O=C(CCCCCC1(C(=O)O)CC1)CCCCCC1(C(=O)O)CC1 | 122 to 123 |
| O=c1n(-c2ccccc2)nc2n1-c1ccccc1Oc1ccccc1-2 | 176 to 177 |
| CC(C)Cc1nnc2n1-c1ccc(Br)cc1C(c1ccccc1)=NC2 | 93 to 95 |
| COCCSCC(=O)[C@H](Cc1ccccc1)NC(=O)[C@H](CC(C)C)NC(=O)OCc1ccccc1 | 68 to 69 |
| Cc1oc2c(C=Cc3c(Cl)cccc3Cl)cccc2c1C | 93 to 94 |
| O=C(c1ccccc1)c1ccc(Nc2ccccc2NC(=O)C(F)(F)F)cc1 | 187 to 191 |
| CCOc1ccc(C(=NO)c2ccc(OC)c(Cl)c2Cl)c(F)c1 | 188 to 189 |

| SMILES | melting point [°C] |
| --- | --- |
| COc1ccc(-c2c3cccc(C(F)(F)F)c3nn2C2CCC2)c(OC)c1 | 51 to 52 |
| CC1CN(N=Cc2cccnc2)C(=O)NN1 (stereo unspecified) | 235 to 237 |
| COc1c(Cl)cc(OCC=C(Cl)Cl)cc1C=NO | 111 |
| O=C1NCC(CCc2ccccc2)O1 (stereo unspecified) | 82 to 83 |
| Nc1c(-c2ccc(O)cc2)nnn1-c1ccc(C(F)(F)F)cc1Cl | 161 to 162 |
| COc1ccc(C(=O)Nc2ccccc2C(C)c2ccccn2)cc1 (stereo unspecified) | 125 to 126 |
| Cc1oc(-c2ccccc2)nc1/C=C/c1ccc(Br)cc1 | 138 to 139 |
| COC(=O)c1cc(C2CO2)cc([N+](=O)[O-])c1 (stereo unspecified) | 59 to 60 |
| O=CCC1Cc2ccc(Cl)cc2C1=O (racemic) | 80 |
| CCOC(=O)CCC(NC(=O)c1ccc(CNCC2CNc3nc(NC(=O)C(C)(C)C)nc(O)c3C2)cc1)C(=O)OCC (stereo unspecified) | 146 to 147 |
| CCOC(=O)C(=O)Cc1c(OCc2ccccc2)cc(C)cc1[N+](=O)[O-] | 80 to 82 |
| CC(=O)c1ccc(OC2SCC(O)C(O)C2O)cn1 (stereo unspecified) | 178 to 179 |
| CC(c1ccc2[nH]c(C(F)(F)F)nc2c1)n1ccnc1 (stereo unspecified) | 165 |
| CC[C@@H]1C[C@H](NC(=O)OCc2ccccc2)c2cc(C(F)(F)F)ccc2N1 | 154 to 155 |
| COc1ccc2c(c1)C(=O)C(Cc1cccc(NS(=O)(=O)C(F)(F)F)c1)CO2 (stereo unspecified) | 114 to 116 |
| COc1cccc(COc2ccc(N)nn2)c1OC | 103 to 106 |
| O=C(O)c1ccn(-c2ccc(F)cc2)c1 | 204 to 205 |
| Cc1cccc(NC(=O)NCC(=O)N(CC(=O)OC2(C)CCCC2)c2ccccc2)c1 | 160 |
| CON=C(C)CC(C)(C)Cn1cnc2c(N)nc3ccccc3c21 | 148 to 150 |
| O=C(O)c1cc(F)cc(C(F)(F)F)c1O | 76 to 83 |
| CCOC(=O)c1cnc2nc(S(=O)(=O)Cl)nn2c1C | 65 to 69 |
| N=C(Nc1ccc(Cl)cc1)Nc1ncc(Cl)cc1OCc1c(F)cccc1Cl | 132 to 133 |
| CCCNC(=O)NNC(=O)c1ccc(OC)cc1 | 176 to 179 |
